# Source: paper PMC11582101, “Unlocking the potential: unveiling tyrphostins with Michael-reactive cyanoacrylate motif as promising inhibitors of human 5-lipoxygenase” (Pflugers Archiv, 2024)
# Entries after “also recorded” stand apart in the source; their conditions may differ. Where two headings read alike, the source gives them in different places.
# Key:
# 12-LO = molecular target: T1, 12-LO (Homo sapiens, UniProt P18054); assay: 12-HETE formation in platelets; conditions: 20 µM AA, 2.5 µM A23187, n = 3–6
# T1 sequence (P18054 1-663): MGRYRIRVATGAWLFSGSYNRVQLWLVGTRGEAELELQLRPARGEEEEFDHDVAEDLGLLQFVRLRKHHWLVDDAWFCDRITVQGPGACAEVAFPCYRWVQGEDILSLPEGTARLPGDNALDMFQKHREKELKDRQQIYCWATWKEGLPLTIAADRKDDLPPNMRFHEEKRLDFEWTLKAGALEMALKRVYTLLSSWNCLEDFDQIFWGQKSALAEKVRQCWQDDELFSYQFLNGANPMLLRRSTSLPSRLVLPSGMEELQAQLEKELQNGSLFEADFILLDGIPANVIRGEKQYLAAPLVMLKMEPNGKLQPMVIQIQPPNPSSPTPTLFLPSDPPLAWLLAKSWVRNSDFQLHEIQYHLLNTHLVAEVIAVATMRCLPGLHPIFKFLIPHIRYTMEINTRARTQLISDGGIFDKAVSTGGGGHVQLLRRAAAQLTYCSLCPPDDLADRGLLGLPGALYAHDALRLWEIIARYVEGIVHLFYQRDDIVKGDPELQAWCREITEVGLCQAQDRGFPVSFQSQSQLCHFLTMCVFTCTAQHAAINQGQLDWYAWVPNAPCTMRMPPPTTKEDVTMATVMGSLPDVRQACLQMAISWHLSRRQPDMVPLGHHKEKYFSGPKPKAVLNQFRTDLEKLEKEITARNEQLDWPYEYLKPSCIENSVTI
# 15-LO = assay: 15-HETE formation in intact PMNL; conditions: for IC50: read-out: IC50 for inhibition of 15-HETE formation, PMNL
# 5-LO [1] = molecular target: T2, 5-LO (Homo sapiens, UniProt P09917); assay: 5-LO product formation in intact PMNL
# T2 sequence (P09917 1-674): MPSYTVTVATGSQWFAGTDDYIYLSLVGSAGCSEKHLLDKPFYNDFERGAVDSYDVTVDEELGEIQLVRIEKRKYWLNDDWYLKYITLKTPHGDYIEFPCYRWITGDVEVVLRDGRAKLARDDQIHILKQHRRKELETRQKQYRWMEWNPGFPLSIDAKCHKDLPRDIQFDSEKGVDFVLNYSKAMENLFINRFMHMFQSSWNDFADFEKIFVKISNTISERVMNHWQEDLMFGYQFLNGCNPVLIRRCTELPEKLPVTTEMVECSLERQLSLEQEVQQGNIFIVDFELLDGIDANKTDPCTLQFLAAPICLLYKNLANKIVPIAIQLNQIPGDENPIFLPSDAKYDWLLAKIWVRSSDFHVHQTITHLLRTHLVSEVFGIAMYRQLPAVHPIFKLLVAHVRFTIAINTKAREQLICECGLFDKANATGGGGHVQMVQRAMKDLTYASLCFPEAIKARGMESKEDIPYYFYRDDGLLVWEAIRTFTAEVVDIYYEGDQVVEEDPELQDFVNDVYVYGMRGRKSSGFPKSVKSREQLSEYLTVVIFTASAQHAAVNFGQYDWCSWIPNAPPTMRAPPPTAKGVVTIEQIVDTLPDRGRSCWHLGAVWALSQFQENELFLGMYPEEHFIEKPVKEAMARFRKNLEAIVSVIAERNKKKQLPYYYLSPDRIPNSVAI
# r5-LO_WT = molecular target: T3, r5-LO_WT (Homo sapiens, UniProt P09917); assay: Covalent inhibitor binding by mass spectrometry, r5-LO_WT; conditions: 100 µM compound; for inhibitor adducts to r5-LO_WT detected by mass spectrometry: 20 µM protein, at least 1 h RT; for mass shift of inhibitor adduct: 20 µM r5-LO_WT
# T3 construct: made in house; host or cells: E. coli BL21 (DE3)
# T3 sequence (P09917 1-674): T2 sequence (P09917 1-674)
# r5-LO_4C = molecular target: T4, r5-LO_4C (Homo sapiens, UniProt P09917, C160S/C301S/C417S/C419S); assay: Covalent inhibitor binding by mass spectrometry, r5-LO_4C; conditions: 20 µM protein, 100 µM compound, at least 1 h RT
# T4 construct: made in house; host or cells: E. coli BL21 (DE3)
# T4 sequence (P09917 2-674 C160S/C301S/C417S/C419S limits assumed): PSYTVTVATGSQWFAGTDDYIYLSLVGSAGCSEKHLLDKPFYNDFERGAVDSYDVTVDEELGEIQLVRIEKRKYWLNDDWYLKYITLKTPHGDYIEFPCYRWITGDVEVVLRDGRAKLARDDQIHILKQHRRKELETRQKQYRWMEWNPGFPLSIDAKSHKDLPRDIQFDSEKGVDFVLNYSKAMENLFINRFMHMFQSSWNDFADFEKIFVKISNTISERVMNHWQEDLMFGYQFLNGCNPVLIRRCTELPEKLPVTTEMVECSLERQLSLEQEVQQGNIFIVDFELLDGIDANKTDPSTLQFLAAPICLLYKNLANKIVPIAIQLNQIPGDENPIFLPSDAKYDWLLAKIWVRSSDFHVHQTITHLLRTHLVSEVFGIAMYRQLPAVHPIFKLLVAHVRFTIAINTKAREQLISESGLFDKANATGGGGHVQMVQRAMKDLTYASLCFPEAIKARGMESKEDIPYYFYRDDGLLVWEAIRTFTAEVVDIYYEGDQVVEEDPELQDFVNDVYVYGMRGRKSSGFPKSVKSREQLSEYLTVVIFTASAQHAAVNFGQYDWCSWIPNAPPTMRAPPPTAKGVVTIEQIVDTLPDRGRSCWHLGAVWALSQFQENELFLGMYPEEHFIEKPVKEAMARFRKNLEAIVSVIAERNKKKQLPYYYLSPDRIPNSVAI
# Description: r5-LO_WT or r5-LO_4C protein was diluted to 20 µM in gel filtration buffer; 100 µM of compound was added and incubated for a minimum time of 1 h at RT before 10 µL was injected onto a 1260 Infinity HPLC (Agilent, Santa Clara, USA) using a C3 column with a flow rate of 0.4 mL/min as published before. The HPLC was coupled with a 6230 electrospray ionization TOF LC/MS detector (Agilent, Santa Clara, CA, USA). Data were acquired using the Agilent MassHunter Acquisition software and processed with the Agilent Mass Hunter BioConfirm software (B.08.00). Peak intensities were calculated and normalized to the highest count of each data set with GraphPad Prism version 7.05 (GraphPad Software, Boston, MA, USA).
# Fig. 3 Mass spectra of r5-LO_WT or r5-LO_4C incubated with inhibitors (blue or red line). 20 µM r5-LO_WT (left) or r5-LO_4C (right) was incubated with 100 µM degrasyn (A), AG556 (B), tyrphostin A9 (C), AG879 (D), or CAPE (E) at RT for at least 1 h before analysis. Measurement was performed using an Agilent 1260 Infinity HPLC with an Agilent 6230 TOF LC/MS detector. Obtained data were processed using Mass Hunter BioConfirm (B.08.00), and resulted counts were normalized to the highest peak of the spectrum
# U2OS cells [2] = conditions: human, 10 µM
# U2OS cells [3] = assay: Multiplex live-cell high-content assay; conditions: for normalized healthy cell count: up to 48 h, normalized to DMSO
# 5-LO [4] = molecular target: T2, 5-LO; assay: 5-LO activity in PMNL homogenates; type: biochemical; design: endogenous in cells; host or cells: human PMNL (polymorphonuclear leukocytes); conditions: sonicated PMNL, 20 µM AA
# Description: Samples were kept on ice, and 1 mM ATP or 1 mM ATP/1 mM GSH was added. The inhibitors were preincubated with the cell homogenate on ice for 15 min before heating the samples at 37 °C for 30 s. […] Solid phase extraction and UPLC analysis were performed as described above.
# [5] = intact PMNL, 20 µM AA, 2.5 µM A23187, (95% CI), n = 3–6
# [6] = IC50 for inhibition of 5-LO product formation, PMNL, intact PMNL, 20 µM AA, 2.5 µM A23187, (95% CI), n = 3–6
"IC50 for inhibition of 12-HETE formation, platelets (12-LO)","IC50 for inhibition of 15-HETE formation, PMNL (15-LO; [5])",IC50 (5-LO [1]),IC50 (15-LO; [5]),Molecule,also measured
no inhibition,no inhibition,7.2 µM,,N#C/C(=C\c1ccc(O)c(O)c1)C(N)=O [(E)-AG99],
no inhibition,no inhibition,5.4 µM,,N#CC(C#N)=Cc1ccc(O)c(O)c1 [AG18],
,no inhibition,,,N#C/C(=C\c1ccc(O)c(O)c1)C(=O)O [AG30],"IC50 for inhibition of 5-LO product formation, PMNL (5-LO [1]; [5]): no inhibition"
no inhibition,no inhibition,8 µM,,N#CC(C#N)=Cc1cc(O)c(O)c(O)c1 [AG82],
,no inhibition,,,N#CC(C#N)=Cc1ccc([N+](=O)[O-])c(O)c1 [AG126],"IC50 for inhibition of 5-LO product formation, PMNL (5-LO [1]; [5]): no inhibition"
no inhibition,,,> 25 µM,N#C/C(=C\c1ccc(O)c(O)c1)C(=O)NCc1ccccc1 [AG490],IC50 (5-LO [1]; [6]): 1.1 µM
no inhibition,,0.86 µM,22 µM,N#C/C(=C\c1ccc(O)c(O)c1)C(=O)Nc1ccccc1 [AG494],
no inhibition,,0.23 µM,10 µM,"O=C(/C=C/c1ccc(O)c(O)c1)OCCc1ccccc1 [CAPE, caffeic acid phenethyl ester]",inhibitor adducts to r5-LO_WT detected by mass spectrometry (r5-LO_WT): did not detect mass shifts; normalized healthy cell count (U2OS cells [2]): around 75%
,no inhibition,> 30 µM,,COc1ccc(/C=C(/C#N)c2cccnc2)cc1OC [RG13022],
,no inhibition,5.9 µM,,N#C/C(=C/c1cc(Cl)cc(Cl)c1)c1cccnc1 [RG14620],
,,,,CN[C@@H]1C[C@H]2O[C@@](C)([C@@H]1OC)n1c3ccccc3c3c4c(c5c6ccccc6n2c5c31)C(=O)NC4 [Staurosporine],normalized healthy cell count (U2OS cells [3]; 10 µM inhibitor): about 25%
,no inhibition,,,N#CC(C#N)=Cc1ccc(O)cc1 [Tyrphostin 8],"IC50 for inhibition of 5-LO product formation, PMNL (5-LO [1]; [5]): no inhibition; IC50 for inhibition of 5-LO product formation, PMNL (5-LO [1]; intact PMNL, 20 µM AA, 2.5 µM A23187, (95% CI), n = 3–6, listed as tyrphostin 8): failed to inhibit"
,moderate inhibition,,18 µM,C[C@H](NC(=O)/C(C#N)=C/c1cccc(Br)n1)c1ccccc1 [WP1066],IC50 (5-LO [1]; [6]): 0.93 µM
,,,,AG825,"IC50 for inhibition of 15-HETE formation, PMNL (15-LO): no inhibition"

Molecule,"IC50 for inhibition of 12-HETE formation, platelets (12-LO)","IC50 for inhibition of 15-HETE formation, PMNL (15-LO; [5])",IC50 (5-LO [1]),IC50 (15-LO; [5]),also measured
N#C/C(=C\c1ccc(O)c(O)c1)C(=O)NCCCCc1ccccc1 [AG556],no inhibition,,0.34 µM,5.1 µM,inhibitor adducts to r5-LO_WT detected by mass spectrometry (r5-LO_WT): covalently bound to up to four cysteines; also recorded: four peaks; mass shift of inhibitor adduct (r5-LO_WT): 336 Da; inhibitor adducts to r5-LO_4C detected by mass spectrometry (r5-LO_4C): only one adduct; normalized healthy cell count (U2OS cells [2]): around 75%
CC(C)(C)c1cc(C=C(C#N)C#N)cc(Br)c1O [AG1024],,no inhibition,3.1 µM,,
CCC[C@H](NC(=O)/C(C#N)=C/c1cccc(Br)n1)c1ccccc1 [Degrasyn],no inhibition,moderate inhibition,0.62 µM,7.9 µM,"inhibitor adducts to r5-LO_WT detected by mass spectrometry (r5-LO_WT): covalently bound to up to four cysteines; also recorded: four peaks; mass shift of inhibitor adduct (r5-LO_WT): 384 Da; inhibitor adducts to r5-LO_4C detected by mass spectrometry (r5-LO_4C): only one adduct; normalized healthy cell count (U2OS cells [2]): below 50%; increase of mitochondrial mass (U2OS cells [2]; 48 h): more than 50%; phenotypic properties (tubulin, mitochondrial mass, membrane permeability, cell morphology) (U2OS cells [3]; 10 µM, 48 h): additional effects on microtubules and on membrane integrity; IC50 (5-LO [4]; with 1 mM GSH, read-out: IC50 5-LO, PMNL homogenates + GSH): 4.2 µM; IC50 (5-LO [4]; without GSH, read-out: IC50 5-LO, PMNL homogenates): 0.89 µM"
CC(C)c1cc(/C=C(\C#N)C(=O)NCCCc2ccccc2)cc(C(C)C)c1O [SU1498],,did not show inhibition; also recorded: no inhibition,0.76 µM,,
CC(C)(C)c1cc(C=C(C#N)C#N)cc(C(C)(C)C)c1O [Tyrphostin A9],no inhibition,no inhibition,1.1 µM,,"inhibitor adducts to r5-LO_WT detected by mass spectrometry (r5-LO_WT): did not detect mass shifts; normalized healthy cell count (U2OS cells [3]; 1 µM inhibitor): 57%; normalized healthy cell count (U2OS cells [3]; 1 µM inhibitor, listed as tyrphostin A9): about 50%; normalized healthy cell count (U2OS cells [3]; 10 µM inhibitor): below 50%"
